Results reported in US20260176700A1, “TOXICITY MARKER FOR 5-FLUOROURACIL” (Oxford University Innovation Limited, priority 2022, published 2026).

Legend:
[1] = tested on: patients with reduced DPD activity; details: patients with germline DPYD variants / reduced DPD activity, 5FU-related toxicity; cited from earlier work
[2] = tested on: colorectal cancer patients; assay: QUASAR 2 clinical trial: cardiovascular related adverse events under capecitabine; format: in vivo, human; details: stage II/III colorectal cancer patients administered capecitabine (alone or plus bevacizumab), most common events cardiac chest pain and angina
Description: QUASAR 2, a randomised controlled trial of capecitabine+bevacizumab has been described previously (Kerr, R. S., et al. Lancet Oncol, 2016. 17(11):1543-1557; and Rosmarin, D., et al. Gut, 2015. 64(1):111-20). Briefly, participants were stage II/stage III colorectal cancer patients with performance status 0/1 and normal renal function. Patients were randomly assigned (1:1) to receive eight 3-week cycles of oral capecitabine alone (1250 mg/m^2 twice daily for 14 days followed by a break for 7 days) or the same regimen of oral capecitabine plus 16 cycles of 7.5 mg/kg bevacizumab by intravenous infusion over 90 min on day 1 of each cycle. All patients consented for use of biological samples and medical records in research. Cardiovascular toxicity was confirmed by two independent clinicians reviewing patient case report forms.
3% of colorectal cancer patients administered with capecitabine as part of the QUASAR 2 clinical trial experienced cardiovascular related adverse events. The most commonly described events were cardiac chest pain and angina. The inventors performed a genome wide association study to identify genetic markers associated with cardiovascular adverse events under an additive genetic model. Given the rarity of cardiovascular toxicity, variants with a minor allele frequency (MAF)<10% were filtered out. […]

SMILES	patients with reduced DPD activity who experience cardiotoxicity [1]	patients who experienced cardiovascular related adverse events [2] [%]
O=c1[nH]cc(F)c(=O)[nH]1 [5FU, 5-flurouracil]	2-5%	–
CCCCCOC(=O)Nc1nc(=O)n(C2OC(C)C(O)C2O)cc1F (centres unmarked) [capecitabine, pentyl [1-(3,4-dihydroxy-5-methyltetrahydrofuran-2-yl)-5-fluoro-2-oxo-1H-pyrimidin-4-yl]carbamate]	–	3
